This is an account of results in patent publication US11360104B2, “Microbial-based biosensors” (TRUSTEES OF BOSTON UNIVERSITY, priority 2017, dated 2022).

Each structure is given as a SMILES string. Where two headings read alike, the source gives them in different places.

Data set [1] concerns TetR variant TetRc, tdTomato fusion (tetR-tdTomato). Put plainly: FRET sensor 1 (tdTomato-TetRc + Cy5-DNA) titrated with aTc; aTc-induced TF-DNA unbinding. The class given is biochemical. An excerpt: (§1) The TetO cognate sequence comprises a 19 bp binding region. The 19 bp cognate sequence was flanked by 4-5 bp on each side to ensure binding, resulting in a 28 bp DNA oligo. One of the strands was labeled with the FRET acceptor Cy5 on both the 5′ and 3′ ends. A second 28 bp sequence with no affinity for TetR was similarly labeled to act as the negative control (Table 4).
(§2) Each sensor consists of Cy5-modified DNA acting as the FRET acceptor with either a fluorescent protein-transcription factor (FP-TF) fusion protein (expressed in E. coli) or quantum dot-transcription factor (QD-TF) conjugate as the donor.
(§3) A TF to DNA ratio was chosen for each sensor (1:3 for Sensor 1, 1:4.5 for Sensors 2 and 3) and kept constant for subsequent experiments testing sensor sensitivity to aTc.
(§4) To compare the three sensors, the sensor outputs were fit to a modified Hill equation written as:
(§5) [formula] where S0 is the intensity of the sensor signal with no analyte present, S1 is the intensity of the sensor signal at saturating analyte concentration, c is the analyte concentration, EC50 is the concentration at which there is 50% signal (aka the effective concentration, or EC50), and h is the Hill coefficient, which indicates cooperative binding. For visual comparison, the sensor outputs were normalized and plotted together (FIGS. 4A and B).

The subject of data set [2] is TetR variant TetRd (TetR-6His, on QD2). Kind of data set: FRET sensor 3 (QD2-TetRd + Cy5-DNA) titrated with aTc; aTc-induced TF-DNA unbinding. In kind it is biochemical.
Excerpt: as §1, §2, §3, §4, §5
(§6) For Sensors 2 and 3, QDs and tetR-6His were mixed at a 1:4 ratio with a final QD concentration of 50 nM for self-assembly of the tetR-6His to the surface of the QDs^21.

For data set [3], the system named is TetR variant TetRc (TetR-6His, on QD1). Put plainly: FRET sensor 2 (QD1-TetRc + Cy5-DNA) titrated with aTc; aTc-induced TF-DNA unbinding. The class given is biochemical.
Excerpt: as §1, §2, §3, §4, §5, §6

A further data set deals with PinR (Nocardioides simplex (Pimelobacter simplex), UniProt A0A0A1DUF2). Kind of data set: Cross-reactivity test with estradiol, 1:4:6 QD:TF:oligo sensor. In kind it is biochemical. Conditions: FIG. 44E. An excerpt:
FIGS. 44A-44E show a schematic of the biosensor and emission plots. […] These two graphs show the difference between our sensor (blue) and negative control (orange). The lowest number of acceptor molecules with the largest difference between the signal and noise (difference between blue and orange) is the concentration ratio that we want to work with moving forward. The sensor tested moving forward comprised a 1:4:6 ratio of QD:TF:oligo-dye. Fda=Donor emission intensity in the presence of acceptor; Fd=Donor emission intensity in the absence of acceptor; Relative Donor Emission=Fda/Fd; FRET efficiency=1−Fda/Fd; Fa=Acceptor emission intensity in the presence of the donor; [QD]=50 nM; Oligo-Cy5:QD=0-48. […] When the TF is bound to the QD and the oligo is bound to the TF, which is more likely in the absence of the analyte (red line), the donor emission intensity is decreased and the acceptor emission intensity is increased (energy transfer from the QD to the dye on the oligo). The presence of the analyte decreases the affinity of the TF for the oligo, so binding is less likely; as a result, the donor emission intensity is increased and the acceptor emission intensity decreased. […] This same sensor was tested with estradiol (estrogen) as well to test for cross-reactivity. […]

The next data set deals with Pimelobacter simplex. Put plainly: Solvent and steroid exposure growth curves. To be noted: P. simplex, starting OD 0.005, constant solvent. The text has this: (§7) In order to identify steroid binding Transcription Factors, a whole transcriptome RNA sequencing (RNA-Seq) screen was developed (FIG. 7). The growth of Pimelobacter simplex bacteria was profiled with respect to the starting inoculation density, solvent toxicity, and the addition of steroids (FIG. 16). […] P. simplex bacteria were screened against the steroid solvents ethanol (EtOH) and dimethyl sulfoxide (DMSO). […] Steroid growth curves were similarly performed using a starting OD of 0.005 and constant solvent dosing with titrations of steroids. […] P. simplex bacteria were grown in the presence of 700 μM testosterone, 21.88 μM progesterone, 87.50 μM estrone, 21.88 μM 17β-estradiol, 21.88 μM hydrocortisone, or 175.00 μM aldosterone concentrations were selected for comparison.
In order to properly determine the doubling time of the strain, growth curves were performed. All growth curves were done in 100 μL per well volumes in 96 well flat clear bottom black polystyrene TC-treated microplates which were individually wrapped with a lid and sterile (Corning #3603). Measurements were done by an Infinite M200 Pro (TECAN) spectrophotometer at the temperature suited for P. simplex. Readings were performed over 96 cycles of 15 minutes each at 600 nm absorbance with 25 flashes in a 3×3 (XY-Line) type reads per well. In between reads there was orbital shaking at 150 rpm frequency for a total of 10 minutes. In order to characterize the growth alone, a ½ serial dilution of 9 concentrations from 0.5-0.0020 OD600 nm were prepared in the respective media. Then each concentration was measured as previously described using a microplate reader (TECAN) and normalized against a media background control in technical triplicate. Afterward, an appropriate starting concentration of cells was chosen with a substantially long lag-phase, linear log phase, and a plateau of stationary-phase.
Once an appropriate starting cell concentration was chosen, a secondary growth curve was performed to test the toxicity levels of the solvents used to dissolve steroids of interest. Since the steroids used are heavily hydrophobic, they often need to be dissolved in organic solvents such as DMSO or ethanol which are toxic to bacteria at high concentrations. P. simplex was incubated under microplate reader conditions previously mentioned at a starting OD determined by the first growth curve with DMSO, ethanol, or H2O at ½ serial dilutions for a total of eight concentrations (50-0.39%) tested in technical triplicate. Two controls were included per solvent; a positive control without solvent and a media control which allowed for appropriate normalization. Solvent exposure growth curves allowed for choosing the maximum amount of solvent concentration that strains would sustain while maintaining relative viability in order to determine a range of steroid concentrations which could be used.
A tertiary growth curve was performed to test the toxicity levels of steroid specific to P. simplex. The strain was incubated under microplate reader conditions previously mentioned at a starting OD determined by the first growth curve and the highest solvent concentration corresponding to the steroid of interest with steroid at ½ serial dilutions for a total of seven concentrations tested in singlet. Testosterone, progesterone, 17β-estradiol, hydrocortisone, and aldosterone were all dissolved in ethanol while estrone was dissolved in DMSO. Three controls were included for each steroid; a positive control with the highest tolerable solvent concentration (%), a positive control with media, and a media control which allowed for normalization. Steroid exposure growth curves allowed for choosing the maximum amount of steroid concentration that P. simplex would sustain while maintaining relative viability.

The subject of data set [4] is steroid responsive genome island (SRGI). Put plainly: Whole transcriptome RNA-Seq of steroid treated P. simplex. In kind it is cell-based, Pimelobacter simplex. To be noted: P. simplex exposed to steroid vs solvent control, Log2 fold change.
Excerpt: as §7
Using accession gene tags, genes were annotated for steroid relevant enzymes or transcription factors. […] Allosteric TF binding sequences are often palindromes and typically located near the start of its gene location in an intergenic space. With such a design, the allosteric TF can regulate itself or the open reading frame (ORF) near it in response to its effector molecule. […] Once identified, the TFs were cloned and recombinantly expressed for thorough characterization.
Cells were grown in 6 mL volumes of media at the OD, solvent, and steroid concentrations found from the growth curves in 14 mL polypropylene round-bottom tubes (Corning #352059) in technical duplicate. The same controls as in the steroid exposure growth curve were used for setting up RNA extraction samples. The cells were incubated at their corresponding temperature with continuous orbital shaking at 150 rpm until the end of lag-phase, mid-log phase, or stationary phase from the start of inoculation. Afterward, samples were removed and a 1:1 ratio of RNAprotect Bacteria Reagent (Qiagen #76506) was added followed by spinning down at 4° C. for 10 minutes at 4000 g. Supernatant was removed and the pellet re-suspended in 300 μL of RNAprotect and transferred into 2.0 mL Safe-Lock Tubes (Eppendorf #3101). The samples were then spun down once again at 4° C. for 10 minutes at 10000 g. Once the supernatant has been removed the samples were placed on ice and ready for RNA extraction. RNA extraction was done by Qiacube (Qiagen #9001292) set to the RNeasy Protect Bacteria Mini Kit protocol of bacterial cell pellet with enzymatic lysis. Tube A was prepared as described except with the addition of 150 mg/mL lysozyme (Sigma-Aldrich #L6876) and 20 mg/mL proteinase K (Roche #03115879001) all diluted in 1xTE buffer. RNA samples were subsequently quantified using Qubit RNA HS Assay Kit (Thermo Fisher Scientific #Q32852) and analyzed using a RNA 6000 Pico Kit (Agilent 5067-1513) in a 2100 Bioanalyzer (Agilent G2939A). RNA samples were either immediately used for RNA-Seq library preparation or stored long-term at −80° C.
RNA-Seq libraries were then produced from these samples using a slightly modified ScriptSeq v2 RNA-Seq Library Preparation Kit (Illumina 455A/22124) ensuring use of unique index primers through ScriptSeq Index PCR Primers (Sets 1-4) 48 rxns/set (Illumina #SSIP1234).

PinR, sequence (A0A0A1DUF2 entry or part of it): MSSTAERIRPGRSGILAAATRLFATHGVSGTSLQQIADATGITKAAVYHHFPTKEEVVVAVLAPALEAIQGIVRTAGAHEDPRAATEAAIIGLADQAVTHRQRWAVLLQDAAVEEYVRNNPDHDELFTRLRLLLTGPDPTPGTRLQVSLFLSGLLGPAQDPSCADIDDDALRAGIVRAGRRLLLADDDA

For the compound `Cc1c2c(c(O)c3c(O)cccc13)C(=O)[C@]1(O)C(=O)C(C(N)=O)=C(O)[C@@H](N(C)C)[C@@H]1C2` [aTc, anhydrotetracycline], the “h (Hill coefficient)” value in data set [1] (aTc, sensor 1) is recorded as 1.57 ± 0.0802; in data set [2] (aTc, sensor 3) it was 2.14 ± 0.185; in data set [3] (aTc, sensor 2), 2.37 ± 0.191. Further, the EC50 in data set [1] (aTc, sensor 1, tdTomato:TF:DNA 1:1:3, Table 6 fit, read-out: EC50) is 218 ± 9.18 nM; in data set [1] (sensor 1, legend of FIG. 4, read-out: c50 (analyte concentration that yields 50% signal, EC50)) it was 205 nM; in data set [2] (aTc, sensor 3, QD:TF:DNA 1:4:18, Table 6 fit, read-out: EC50), 133 ± 6.15 nM; in data set [2] (sensor 3, legend of FIG. 4, read-out: c50 (analyte concentration that yields 50% signal, EC50)), 117 nM; in data set [3] (aTc, sensor 2, QD:TF:DNA 1:4:18, Table 6 fit, read-out: EC50), 699 ± 26.4 nM; in data set [3] (sensor 2, legend of FIG. 4, read-out: c50 (analyte concentration that yields 50% signal, EC50)) it was 682 nM.

With `C[C@]12CC[C@@H]3c4ccc(O)cc4CC[C@H]3[C@@H]1CC[C@@H]2O` [17β-estradiol, 17β-Estradiol], at PinR, the “impact of concentration on the sensor binding/unbinding (Fa/Fd)” value is on record as “no impact”. The “highest steroid concentration exhibiting normal growth profile” value in the data set on Pimelobacter simplex came out at 21.88 µM. In data set [4], the “upregulation of genes inside the SRGI” value is recorded as “not”.
